The values that follow come from US9815774B1, “Hydrodabcyl” (Universität Bayreuth, priority 2014, dated 2017).

One data set deals with EaHy.926. Description: Cytotoxicity assay, EaHy.926. The settings on record: Homo sapiens, EA.hy 926, incubation for 72 hours, 5 to 100 μM. In kind it is cell-based. As for the experimental part:
(§1) Three different cell culture types were incubated with various concentrations (from 5 to 100 μM) of Hydrodabcyl.

A further data set in a line: Absorption spectra. The conditions noted are these: for ε (molar absorbance): 20° C. It counts as physicochemical. As to the method:
Double beam Perkin Elmer Lambda 750 UV/Vis spectrophotometer equipped with a thermostated cuvette holder was used to record the absorption spectra over a wavelength range 200-800 nm at 20° C.
The quartz cuvettes with 1 cm light path used were from Hellma.

Data set [1] can be described thus: Stability under light exposure. It counts as physicochemical. The settings on record: for effect of light exposure on absorption spectrum: 17.5 μM in DMSO, 5 minutes, 60 W tungsten lamp; for absorbance under 2-hour continuous irradiation at absorption maximum: spectrophotometer beam, 7200 s. As for the experimental part:
The effect of exposure to the light beam of a commercial spectrophotometer was tested to mimic the common experimental condition.
One solution of dabcyl and one of Hydrodabcyl, both at 17.5 μM in DMSO prepared in the dark, were exposed for 5 minutes to the light of a common 60 W tungsten lamp.

Data set [2] can be described thus: Solubility tests in water and buffered aqueous solutions. It counts as physicochemical. The settings on record: for solubility: 50 mM NaP buffer, pH 8.0. An excerpt:
The excellent solubility of the bare chromophore in aqueous solution already confers to Hydrodabcyl several practical advantages, e.g., aqueous solutions of Hydrodabcyl are easier to prepare and glassware can be more readily cleansed. Nevertheless, in most of applications the chromophores are linked to the molecules of interest. For example, to monitor protease activity chromophores are usually linked to the peptidic substrate. Both dabcyl and Hydrodabcyl can be easily coupled to an amino group through a standard amide bond formation. […] To investigate the behavior of dabcyl and Hydrodabcyl coupled to an amino acid bearing an amino group, dabcyl and Hydrodabcyl were linked to the amino group of a Lys side chain, and the solubility of the Lys-dabcyl and Lys-Hydrodabcyl moieties in a buffered aqueous solution at pH 8 were tested.
Buffered solutions (50 mM sodium phosphate) have been prepared at four different pH: 8.0, 7.0, 6.0 and 5.5, respectively. The amount of Hydrodabcyl required to reach a concentration of 5 mM was immersed in each buffer solution and kept for 1 h at 30° C. in an ultrasonic bath. […] To confirm its solubility, the absorbance of Hydrodabcyl was monitored as function of its concentration. Since the stock solution was too concentrated to be measured directly, three diluted solutions with different concentrations (10 μM, 20 μM and 30 μM) were prepared from each stock solution at pH 8.0, pH 7.0 and pH 6.0. The aliquots have been taken from different part of the volume of the stock solution to test the homogeneity.
To reach complete solubility at pH<6.0, the pH of the stock solution (5 mM range) at pH 7.0 was decreased at the desired value with few drops of 5M HCl. Following gradual acidification of the medium the mM solution of Hydrodabcyl remained clear till pH 4.3. […] At pH<4.3 Hydrodabcyl precipitates.

The subject of the next data set is HT-29. Description: Cytotoxicity assay, HT-29. In kind it is cell-based. The conditions noted are these: Homo sapiens, incubation for 72 hours, 5 to 100 μM. As for the experimental part:
as §1

A further data set concerns CHF. Kind of data set: Cytotoxicity assay, CHF. In kind it is cell-based. The conditions noted are these: incubation for 72 hours, 5 to 100 μM. As to the method: as §1
Data set [3] concerns circular and linear double-stranded DNA pBR322. Description: Electrophoretic Mobility Shift Assay (EMSA). In kind it is binding. The settings on record: 24 h incubation, 0, 5, 10, 25, 50 μM, agarose gel. As for the experimental part: The DNA was incubated for 24 hours with various concentrations (0, 5, 10, 25, 50 μM) of (a) doxorubicin and (b) Hydrodabcyl. FIGS. 6a and 6b show the ethidium bromide staining of DNA separated by agarose gel electrophoresis. […] The DNA was incubated for 24 hours with various concentrations (0, 5, 10, 25, 50 μM) of (a) doxorubicin and (b) Hydrodabcyl. FIGS. 7a and 7b show the ethidium bromide staining of DNA separated by agarose gel electrophoresis. […] Circular and linear double-stranded DNA was incubated with various concentrations of Hydrodabcyl and doxorubicin (a known intercalating substance). After 24 h of incubation time, agarose gel electrophoresis was carried out.
For orientation: A gel shift assay detects complexes by their altered migration in electrophoresis.

Data set [4] is described as follows: Solubility tests in water and buffered aqueous solutions. In kind it is physicochemical. The conditions noted are these: for appearance in water: about 7 μM.
Data set [5] relates to oocytes of Xenopus laevis. Kind of data set: Influence on embryogenesis of injected oocytes. It counts as in vivo. The settings on record: conclusion from Table 2. As to the method:
Two sorts of labelled molecules were injected into oocytes of Xenopus laevis: • A molecule labelled with monobromobimane (mBBr; a fluorescent dye, which emits light in the absorption spectrum of Hydrodabcyl); the molecule is called Substrate-Bim • A molecule labelled with mBBr and Hydrodabcyl (a fluorescence quencher); the molecule is called Bim-Substrate-Hydrodabcyl The effect on embryogenesis of the molecules injected into the oocytes as described in Example 5 was observed.

For data set [6] the following is noted: water, reported [8]; cited from earlier work.
Where [7] appears, read: sodium phosphate buffer, aqueous buffer, thermodynamic from solid, read-out: Solubility.

In brackets after ≈: the same amount, converted by molar mass. Several values for one entry are separate records, joined by “and”; a condition that tells them apart may be missing. Equal entries are not always repeated. Where two headings read alike, the source gives them in different places.

Take `CN(C)c1cc(O)c(/N=N/c2ccc(C(=O)O)c(O)c2)c(O)c1` [Hydrodabcyl, 4-((4′-(dimethylamino)2′,6′-dihydroxyphenyl)azo)2-hydroxybenzoic acid]: the IC50 is > 50 µM with EaHy.926, > 50 µM with HT-29 and > 100 µM in the data set with CHF. Moreover, the “ε (molar absorbance)” value in “Absorption spectra” (50 mM sodium phosphate buffer pH=8.0, 2×10^−5 M, at 445 nm) was 43000 ± 1000 L/mol/cm; in “Absorption spectra” (DMSO, 2×10^−5 M, at 470 nm), 37000 ± 1000 L/mol/cm. Moreover, the λmax in “Absorption spectra” (2×10^−5 M in DMSO at 20° C.) was found to be 470 nm; in the data set “Absorption spectra” (aqueous solution, 50 mM sodium phosphate buffer pH=8.0, 20° C.) it was 445 nm. In addition, in the data set “Absorption spectra” (DMSO), the “ε470 (molar absorbance)” value worked out at 37000 M⁻¹ cm⁻¹. Moreover, the “ε445 (molar absorbance)” value in the data set “Absorption spectra” (aqueous solution) was 43000 M⁻¹ cm⁻¹. Also, the “effect of light exposure on absorption spectrum” value in [1] is “no effect on the absorption spectrum”. The “absorbance under 2-hour continuous irradiation at absorption maximum” value in data set [1] (DMSO, 20° C.) is on record as “constant signal”. Moreover, the “dissolution at 5 mM, direct preparation” value in data set [2] (50 mM sodium phosphate pH 5.5, 1 h at 30° C. ultrasonic bath) is recorded as “not completely soluble”; in data set [2] (50 mM sodium phosphate pH 6.0, 1 h at 30° C. ultrasonic bath), “Clear solutions”; in [2] (50 mM sodium phosphate pH 7.0, 1 h at 30° C. ultrasonic bath), “Clear solutions”; in data set [2] (50 mM sodium phosphate pH 8.0, 1 h at 30° C. ultrasonic bath) it was “Clear solutions”. Further, the solubility thermodynamic in data set [2] (aqueous buffer, thermodynamic from solid, buffered aqueous solution at pH 8, read-out: concentration of saturated solution) worked out at 25000 µM (≈ 7930 µg/mL). Also, the solubility in data set [2] (setting [7]) worked out at 25400 µM (≈ 8060 µg/mL); in [4] (thermodynamic from solid, Water, 20° C., pH = 4.5, read-out: Solubility) it was 571 µM (≈ 181 µg/mL). The “shift of DNA bands / intercalation into DNA” value in data set [3] is “does not intercalate or bind to the DNA”. In addition, the appearance in water result in data set [4] (water) is on record as “clear solution”. For the same compound, the influence on embryogenesis result in data set [5] is “does not influence embryogenesis”.

Regarding `NCCCC[C@H](N)C(=O)O` [L-Lys, reference compound], the solubility was 5.8 g per 1 kg of water in data set [6] and “about 40 mM” in data set [4] (water, converted from 5.8 g per 1 kg).

`CN(C)c1ccc(N=Nc2ccc(C(=O)NCCCCC(N)C(=O)O)cc2)cc1` (stereo not shown) [Lys-dabcyl, reference compound]: the solubility in [2] was 7.6 µM and 7.62 µM.

Take `CN(C)c1ccc(/N=N/c2ccc(C(=O)O)cc2)cc1` [dabcyl, 4-(4′-dimethylamino-phenylazo)benzoic acid]: in the data set “Absorption spectra” (2×10^−5 M in DMSO at 20° C.), the λmax worked out at 451 nm. Moreover, the “effect of light exposure on absorption spectrum” value in data set [1] was “strongly modify the absorption spectrum”. Besides, the “absorbance under 2-hour continuous irradiation at absorption maximum” value in [1] (DMSO, 20° C.) is given as “constant signal”. Besides, in [1] (after 5 min 60 W tungsten lamp, DMSO, 20° C.), the “time in the dark to recover original spectrum” value is listed as 10 min. Also, the solubility in data set [2] (setting [7]) stood at 541 µM (≈ 146 µg/mL). For the same compound, the appearance in water entry in data set [4] (water) is “precipitation”.

For `COc1cccc2c1C(=O)c1c(O)c3c(c(O)c1C2=O)C[C@@](O)(C(=O)CO)C[C@@H]3O[C@H]1C[C@H](N)[C@H](O)[C@H](C)O1` [doxorubicin, reference compound], in data set [3], the “shift of DNA bands / intercalation into DNA” value is reported as “shift of the DNA bands with increasing doxorubicin concentration”.

The term IC50 denotes the concentration that inhibits the measured activity by half. A higher IC50 goes with a need for much substance. As a reminder, the solubility is the dissolved amount per volume that the medium holds.
